Data published in US10336702B2, “Pharmaceutically active compounds” (BERGENBIO ASA, priority 2015, dated 2019).

How the values were obtained:
[1] = tested on: TNBC cell line MDA-MB-231; experiment: 3D tumour cell growth in matrigel; format: cell-based; details: MDA-MB-231 in matrigel, increasing concentrations, 9 days, DMSO control
Procedure: MDA-MD-231 cells were treated with increasing concentrations of EX34 or EX33 for 9 days. Treatment was initiated one day after tumour cell seeding. DMSO was used as control. The graphs in FIG. 2 show average tumour size±SEM following treatment with each of EX34 and EX33. Images of the 3D cultures were batch analysed with AMIDA software.
In order to evaluate the role of Akt3 in tumour cell growth and invasion, the effect of two compounds of the invention, the compound of Example 34 (denoted hereafter as EX34) and the compound of Example 33 (denoted hereafter as EX33), on 3D growth in matrigel was assessed.
The TNBC cell line MDA-MB-231 was seeded in matrigel and the cell cultures were treated with increasing concentrations of EX34 or EX33 for 9 days. Treatment was initiated one day after tumour cell seeding. DMSO was used as control. The average tumour sphere size was then evaluated for each treatment. Representative pictures are shown in FIG. 1 for each of the indicated treatment conditions.
Images of the 3D cultures were batch analysed with AMIDA software to quantify the 3D tumour sphere size.

[2] = tested on: MDA-MB-231-D3H2LN/GPF-Luc cells; experiment: Invasive 3D tumour cell growth in matrigel; format: cell-based; details: 2 μM, 72 hours, fluorescence microscopy
Procedure: The TNBC aggressive cell line MDA-MB-231-D3H2LN/GPF-Luc was seeded in matrigel on cover slides to obtain invasive 3D tumour cell colonies. Cell cultures were treated for 72 hours with DMSO (control), 2 μM EX34 or 2 μM EX33, and colonies were evaluated by fluorescence microscopy for 3D invasive growth.

Akt3 in MDA-MB-231 cells = experiment: Cellular (nuclear) localization of Akt3 by immune fluorescence microscopy; format: cell-based; details: 2 μM, 36 hours
Procedure: FIGS. 4 and 5 refer to the cellular localization of Akt3 in MDA-MB-231 cells that were treated for 36 hours with EX33 or EX34. In FIG. 4, cells were stained to visualize the nucleus (top left panel) and Akt3 (top right panel) and analyzed using immune fluorescence microscopy. […] The results were obtained using TissueQuest Software.
The cellular program of epithelial to mesenchymal transition (EMT) is utilized by tumour cells to develop drug resistance and to metastasize. Nuclear translocation of Akt3 is considered crucial for Akt3's ability to phosphorylate SNAIL and induce EMT.
MDA-MB-231 cells were treated for 36 hours with Vehicle (DMSO) or 2 μM EX34. Cells were stained to visualize the nucleus and Akt3. […] Mean intensity of Akt3 in the nucleus was evaluated after treatment with DMSO (control) or EX33 using TissueQuest Software (see FIG. 5).

NSCLC cell line H2086 = experiment: EMT induction (Vimentin immune blotting) with TGF-β under hypoxia; format: cell-based; details: H2086 cells, 20 ng/ml TGF-β, 1% O2, 5 days, 1 μM compound
Procedure: EMT induction was evaluated by quantification of the EMT marker Vimentin. NSCLC H2086 cells were treated with 20 ng/ml TGF-β under hypoxic conditions (1% O2) for 5 days. The effect on Vimentin was evaluated by immune blotting for cells treated with Vehicle (DMSO), 1 μM EX33 or 1 μM EX34, and the results are shown in FIG. 7. Glyceraldehyde-3-phosphate dehydrogenase (GAPDH) was used as loading control. The band intensity of Vimentin has been related to the intensity of the GAPDH band.
NSCLC H2086 cells were treated with 20 ng/ml TGF-β under hypoxic conditions (1% O2) for 5 days to induce EMT. The ability of EX33 and EX34 to prevent EMT was evaluated by quantification of the EMT marker Vimentin. The effect on Vimentin was evaluated by immune blotting for cells treated with Vehicle (DMSO), 1 μM EX33 or 1 μM EX34. GAPDH was used as loading control. The band intensity of Vimentin has been related to the intensity of the GAPDH band.

NSCLC cell line H2073 = experiment: Cell viability with paclitaxel (resazurin reduction) in paclitaxel-resistant cells; format: cell-based; details: paclitaxel with or without compound, 72 hours
Procedure: Cell viability was evaluated using resazurin reduction. Average±SEM are shown, n=3.
The NSCLC cell line H2073 was established from a patient that was resistant to treatment with paclitaxel.
H2073 cells were treated with increasing dosages of paclitaxel in the absence or presence of EX34 for 72 hours, and cell viability was evaluated using resazurin reduction. Average±SEM are shown, n=3.

HMLER-Akt3 cells = experiment: HMLER-Akt3 tumour seeding xenograft model; format: in vivo, NSG mice; details: for Tumour incidence (tumours formed/total number of implantations): 100 mg/kg once a day, after 2 weeks, tumours exceeding 20 mm^3
Procedure: HMLER cells are not very tumourigenic. However, after enforced expression of Akt3, these cells are able to initiate tumours.
Mice implanted with 10^5 or 10^6 HMLER-Akt3 cells were treated with vehicle, EX34 or EX33 at 100 mg/kg once a day. Treatment was initiated on the day of tumour cell implantation. A total of 10 tumours were implanted for each treatment condition. Tumour incidence was evaluated after 2 weeks and tumour size cut of was set at 20 mm^3. Significance determined by unpaired Student two-tailed t test.
The numbers are given as tumours formed/total number of implantations. Significance was determined by unpaired two-tailed Student t-test. Ns: not significant.

COC(=O)N(C)[C@H]1CC[C@H](CC(=O)Nc2cnc(-c3ccc(C(C)(C)N)cc3)c(-c3ccccc3)c2)CC1 [EX34]
3D tumour cell growth (average tumour sphere size) [1]: dose-dependent inhibition of 3D tumour cell growth | invasive 3D tumour cell growth [2]: inhibited tumour cell growth | nuclear localization of Akt3 (Akt3 in MDA-MB-231 cells): prevents nuclear localization of Akt3 | EMT induction (EMT marker Vimentin) (NSCLC cell line H2086): prevent EMT induction | sensitivity to paclitaxel (cell viability) (NSCLC cell line H2073): sensitizes the paclitaxel resistant cell line H2073 to paclitaxel | tumour initiation (HMLER-Akt3 cells; 100 mg/kg once a day from day of implantation): prevented tumour initiation | Tumour incidence (tumours formed/total number of implantations) (HMLER-Akt3 cells; 10^5 HMLER-Akt3 cells implanted): 3/10^ns | Tumour incidence (tumours formed/total number of implantations) (HMLER-Akt3 cells; 10^6 HMLER-Akt3 cells implanted): 0/10^0.0002
